Laboratory results as given in patent publication US12569467B2, “Small molecules that treat or prevent viral infections” (priority 2022, dated 2026).

Tests used:
[1] = biological target: SARS-CoV2 spike protein (Severe acute respiratory syndrome coronavirus 2, UniProt P0DTC2); format: binding
[2] = test system: HEK293 cells; details: PrestoBlue, various concentrations, within the indicated concentrations (FIG. 3E)

## O=C1Nc2ccccc2/C1=C\c1ccc(-c2cc(C(F)(F)F)cc(C(F)(F)F)c2)o1 [CD04872SC, 3-({5-[3,5-di(trifluoromethyl)phenyl]-2-furyl}methylidene)indolin-2-one]
[1]
  difference of thermal stability (Tm) in presence versus absence of compound: about 3 Celsius degrees
[2]
  cell cytotoxicity: without major cell cytotoxicity
